Laboratory results from PubChem BioAssay AID1963966 (Molecular Pharmacology Branch, DTP, NCI, 2024).

Test system: 935938-334-R-J1-PDC spheroids with HUVEC/MSC, viability
Test: Anticancer human tumor 935938-334-R-J1-PDC patient-derived small intestine adenocarcinoma cell line growth inhibition [PI3K]
Conditions: for IC50: curve of first compound; for viability, T/C: stronger effect = lower value
Summary of the method: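 Multi-cell spheroids combine tumor cells with HUVEC and human MSCs, treated with targeted agents alone or with inavolisib, alpelisib, duvelisib or copanlisib. Concentrations fall in half-log steps from at or near clinical Cmax, or from 10 microM where Cmax is unknown; viability read-out.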

[1] = second compound 0.00316 µM, first compound 0.0316 µM
[2] = second compound 0.00316 µM, first compound 0.1 µM
[3] = second compound 0.00316 µM, first compound 0.316 µM
[4] = second compound 0.00316 µM, first compound 1 µM
[5] = second compound 0.00316 µM, first compound 3.16 µM
[6] = second compound 0.00316 µM, first compound 10 µM
[7] = second compound 0.01 µM, first compound 0.0316 µM
[8] = second compound 0.01 µM, first compound 0.1 µM
[9] = second compound 0.01 µM, first compound 0.316 µM
[10] = second compound 0.01 µM, first compound 1 µM
[11] = second compound 0.01 µM, first compound 3.16 µM
[12] = second compound 0.01 µM, first compound 10 µM
[13] = second compound 0.0316 µM, first compound 0.0316 µM
[14] = second compound 0.0316 µM, first compound 0.1 µM
[15] = second compound 0.0316 µM, first compound 0.316 µM
[16] = second compound 0.0316 µM, first compound 1 µM
[17] = second compound 0.0316 µM, first compound 3.16 µM
[18] = second compound 0.0316 µM, first compound 10 µM
[19] = second compound 0.1 µM, first compound 0.0316 µM
[20] = second compound 0.1 µM, first compound 0.1 µM
[21] = second compound 0.1 µM, first compound 0.316 µM
[22] = second compound 0.1 µM, first compound 1 µM
[23] = second compound 0.1 µM, first compound 3.16 µM
[24] = second compound 0.1 µM, first compound 10 µM
[25] = second compound 0.316 µM, first compound 0.0316 µM
[26] = second compound 0.316 µM, first compound 0.1 µM
[27] = second compound 0.316 µM, first compound 0.316 µM
[28] = second compound 0.316 µM, first compound 1 µM
[29] = second compound 0.316 µM, first compound 3.16 µM
[30] = second compound 0.316 µM, first compound 10 µM
[31] = second compound 1 µM, first compound 0.0316 µM
[32] = second compound 1 µM, first compound 0.1 µM
[33] = second compound 1 µM, first compound 0.316 µM
[34] = second compound 1 µM, first compound 1 µM
[35] = second compound 1 µM, first compound 3.16 µM
[36] = second compound 1 µM, first compound 10 µM
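Note: compound exposure lasted seven days before viability was read.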
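Throughout, for viability, T/C: percent of vehicle DMSO treated spheroid viability so 100% = untreated.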

Q: For `CC1(C)CCC(CN2CCN(c3ccc(C(=O)NS(=O)(=O)c4ccc(NCC5CCOCC5)c([N+](=O)[O-])c4)c(Oc4cnc5[nH]ccc5c4)c3)CC2)=C(c2ccc(Cl)cc2)C1` + COc1c(OCCCN2CCOCC2)ccc2c3n(c(=NC(=O)c4cnc(N)nc4)nc12)CCN3, which IC50 (second compound 0.00316 µM) is on record?
A: > 10000 nM

Q: And the IC50 (second compound 0.01 µM)?
A: > 10000 nM

Q: What about the IC50 (second compound 0.0316 µM) of the same compound?
A: > 10000 nM

Q: And the IC50 (second compound 0.1 µM)?
A: 10000 nM

Q: What about the IC50 (second compound 0.316 µM) of the same compound?
A: < 31.6 nM

Q: And the IC50 (second compound 1 µM)?
A: < 31.6 nM

Q: And the viability, T/C [1]?
A: 98.6%

Q: And the viability, T/C [2]?
A: 99.3%

Q: What about the viability, T/C [3] of the same compound?
A: 92.7%

Q: What about the viability, T/C [4] of the same compound?
A: 110%

Q: And the viability, T/C [5]?
A: 84.8%

Q: And the viability, T/C [6]?
A: 93.1%

Q: And the viability, T/C [7]?
A: 108%

Q: And the viability, T/C [8]?
A: 85.6%

Q: What about the viability, T/C [9] of the same compound?
A: 83.7%

Q: And the viability, T/C [10]?
A: 66.8%

Q: What about the viability, T/C [11] of the same compound?
A: 82.4%

Q: And the viability, T/C [12]?
A: 84.8%

Q: What about the viability, T/C [13] of the same compound?
A: 67.7%

Q: What about the viability, T/C [14] of the same compound?
A: 68.6%

Q: What about the viability, T/C [15] of the same compound?
A: 71.1%

Q: And the viability, T/C [16]?
A: 68.5%

Q: And the viability, T/C [17]?
A: 69.5%

Q: What about the viability, T/C [18] of the same compound?
A: 74%

Q: What about the viability, T/C [19] of the same compound?
A: 66.5%

Q: What about the viability, T/C [20] of the same compound?
A: 44.7%

Q: And the viability, T/C [21]?
A: 56.8%

Q: What about the viability, T/C [22] of the same compound?
A: 52.2%

Q: What about the viability, T/C [23] of the same compound?
A: 52.5%

Q: And the viability, T/C [24]?
A: 47.3%

Q: What about the viability, T/C [25] of the same compound?
A: 27.1%

Q: And the viability, T/C [26]?
A: 36.2%

Q: And the viability, T/C [27]?
A: 30%

Q: What about the viability, T/C [28] of the same compound?
A: 33.2%

Q: What about the viability, T/C [29] of the same compound?
A: 33.6%

Q: What about the viability, T/C [30] of the same compound?
A: 40.1%

Q: What about the viability, T/C [31] of the same compound?
A: 34.6%

Q: What about the viability, T/C [32] of the same compound?
A: 39.5%

Q: What about the viability, T/C [33] of the same compound?
A: 38.9%

Q: What about the viability, T/C [34] of the same compound?
A: 29.3%

Q: And the viability, T/C [35]?
A: 34.9%

Q: And the viability, T/C [36]?
A: 32.6%

Q: Which IC50 (second compound 0.00316 µM) does the source give for `C[C@@H](NC(=O)c1ncnc(N)c1Cl)c1ncc(C(=O)Nc2cc(C(F)(F)F)c(Cl)cn2)s1` + COc1c(OCCCN2CCOCC2)ccc2c3n(c(=NC(=O)c4cnc(N)nc4)nc12)CCN3 here?
A: > 10000 nM

Q: What about the IC50 (second compound 0.01 µM) of the same compound?
A: > 10000 nM

Q: And the IC50 (second compound 0.0316 µM)?
A: > 10000 nM

Q: And the IC50 (second compound 0.1 µM)?
A: 6990 nM

Q: What about the IC50 (second compound 0.316 µM) of the same compound?
A: < 31.6 nM

Q: And the IC50 (second compound 1 µM)?
A: < 31.6 nM

Q: What about the viability, T/C [1] of the same compound?
A: 124%

Q: What about the viability, T/C [2] of the same compound?
A: 105%

Q: What about the viability, T/C [3] of the same compound?
A: 116%

Q: What about the viability, T/C [4] of the same compound?
A: 108%

Q: What about the viability, T/C [5] of the same compound?
A: 123%

Q: What about the viability, T/C [6] of the same compound?
A: 82.3%

Q: What about the viability, T/C [7] of the same compound?
A: 104%

Q: And the viability, T/C [8]?
A: 122%

Q: What about the viability, T/C [9] of the same compound?
A: 115%

Q: What about the viability, T/C [10] of the same compound?
A: 117%

Q: And the viability, T/C [11]?
A: 101%

Q: What about the viability, T/C [12] of the same compound?
A: 90%

Q: What about the viability, T/C [13] of the same compound?
A: 81.3%

Q: What about the viability, T/C [14] of the same compound?
A: 94.4%

Q: What about the viability, T/C [15] of the same compound?
A: 96.2%

Q: What about the viability, T/C [16] of the same compound?
A: 85.4%

Q: What about the viability, T/C [17] of the same compound?
A: 76.3%

Q: What about the viability, T/C [18] of the same compound?
A: 69.9%

Q: And the viability, T/C [19]?
A: 67.5%

Q: What about the viability, T/C [20] of the same compound?
A: 65.7%

Q: And the viability, T/C [21]?
A: 73.2%

Q: What about the viability, T/C [22] of the same compound?
A: 71.2%

Q: And the viability, T/C [23]?
A: 60.8%

Q: What about the viability, T/C [24] of the same compound?
A: 44.5%

Q: What about the viability, T/C [25] of the same compound?
A: 46.3%

Q: And the viability, T/C [26]?
A: 42.1%

Q: And the viability, T/C [27]?
A: 38.9%

Q: What about the viability, T/C [28] of the same compound?
A: 41.8%

Q: What about the viability, T/C [29] of the same compound?
A: 40.1%

Q: What about the viability, T/C [30] of the same compound?
A: 42.9%

Q: What about the viability, T/C [31] of the same compound?
A: 36.8%

Q: And the viability, T/C [32]?
A: 41.3%

Q: And the viability, T/C [33]?
A: 40.8%

Q: And the viability, T/C [34]?
A: 37.3%

Q: And the viability, T/C [35]?
A: 37.5%

Q: What about the viability, T/C [36] of the same compound?
A: 34.7%

Q: Which results are given for `Cn1ncnc1[C@H]1c2n[nH]c(=O)c3cc(F)cc(c23)N[C@@H]1c1ccc(F)cc1` + COc1c(OCCCN2CCOCC2)ccc2c3n(c(=NC(=O)c4cnc(N)nc4)nc12)CCN3?
A: IC50 (second compound 0.00316 µM): > 100 nM; IC50 (second compound 0.01 µM): > 100 nM; IC50 (second compound 0.0316 µM): > 100 nM; IC50 (second compound 0.1 µM): 8.29 nM; IC50 (second compound 0.316 µM): < 0.316 nM; IC50 (second compound 1 µM): < 0.316 nM; viability, T/C (second compound 0.00316 µM, first compound 0.000316 µM): 90.8%; viability, T/C (second compound 0.00316 µM, first compound 0.001 µM): 96.6%; viability, T/C (second compound 0.00316 µM, first compound 0.00316 µM): 103%; viability, T/C (second compound 0.00316 µM, first compound 0.01 µM): 83.3%; viability, T/C [1]: 96.2%; viability, T/C [2]: 92.8%; viability, T/C (second compound 0.01 µM, first compound 0.000316 µM): 109%; viability, T/C (second compound 0.01 µM, first compound 0.001 µM): 106%; viability, T/C (second compound 0.01 µM, first compound 0.00316 µM): 92.3%; viability, T/C (second compound 0.01 µM, first compound 0.01 µM): 82.2%; viability, T/C [7]: 92.4%; viability, T/C [8]: 77.4%; viability, T/C (second compound 0.0316 µM, first compound 0.000316 µM): 77%; viability, T/C (second compound 0.0316 µM, first compound 0.001 µM): 65.6%; viability, T/C (second compound 0.0316 µM, first compound 0.00316 µM): 90.2%; viability, T/C (second compound 0.0316 µM, first compound 0.01 µM): 82.2%; viability, T/C [13]: 73.8%; viability, T/C [14]: 76%; viability, T/C (second compound 0.1 µM, first compound 0.000316 µM): 56%; viability, T/C (second compound 0.1 µM, first compound 0.001 µM): 52%; viability, T/C (second compound 0.1 µM, first compound 0.00316 µM): 57.5%; viability, T/C (second compound 0.1 µM, first compound 0.01 µM): 47.2%; viability, T/C [19]: 43.5%; viability, T/C [20]: 50.2%; viability, T/C (second compound 0.316 µM, first compound 0.000316 µM): 31.2%; viability, T/C (second compound 0.316 µM, first compound 0.001 µM): 35.3%; viability, T/C (second compound 0.316 µM, first compound 0.00316 µM): 34.5%; viability, T/C (second compound 0.316 µM, first compound 0.01 µM): 34.6%; viability, T/C [25]: 34.2%; viability, T/C [26]: 35.4%; viability, T/C (second compound 1 µM, first compound 0.000316 µM): 33.1%; viability, T/C (second compound 1 µM, first compound 0.001 µM): 40.3%; viability, T/C (second compound 1 µM, first compound 0.00316 µM): 37.5%; viability, T/C (second compound 1 µM, first compound 0.01 µM): 32.7%; viability, T/C [31]: 36%; viability, T/C [32]: 35.1%
